Experimental findings from patent US20050014811A1, “Substituted benzimidazole compounds and their use for the treatment of cancer” (Aventis Pharma S.A., priority 2001, published 2005) are described below.

Each structure is given as a SMILES string.

For the assay, the target named is CDK4/CyclinD1 (Homo sapiens, UniProt P11802). The assay is described as follows: CDK4/CyclinD1 Flashplate assay, 96-well format, biotinylated-Rb peptide substrate. In kind it is biochemical. The protocol: This is a CDK4/CyclinD1 kinase assay in a 96-well Streptavidin-coated Flashplate with a biotinylated-Rb peptide substrate.
Each point is tested in duplicate
Biotinylated-Rb: Biotin-[…]
• 1. Prepare substrate: 1 mg/ml solution made fresh in PBS. • 2. Add 100 μg per well to the Flashplate. • 3. Incubate for 2 hours at RT. • 4. From 10 mM inhibitor stocks in DMSO, make 1 mM, 300 μM, 100 μM, 30 μM and 10 μM series of dilution in DMSO. • 5. Wash the Flashplate 3 times with 300 μl PBS to remove unbound peptide substrate. • 6. Add the CDK4/CyclinD1 kinase: 70 ng per well, in a volume of 90 μl in kinase buffer (except for “no enzyme” control wells). • 7. Add 1 μl^1 per well of inhibitor to test 10 μM, 3 μM, 1 μM, 0.3 μM and 0.1 μM in final concentration per 100 μl in each well. • 8. Shake gently the Flashplate 1 minute. • 9. Incubate 30 minutes on wet ice. • 10. Initiate the reaction with 10 μl kinase buffer containing 1 μM final cold ATP and 1 μCi final ^33P-ATP per well. • 11. Shake gently the Flashplate 1 minute. • 12. Incubate 45 minutes at RT (no shaking). • 13. Wash the Flashplate 3 times with 300 μl PBS • 14. Count to detect the incorporation of ^33P-ATP by the kinase to the Rb phosphorylation site.

As usually defined, the inhibition is the change of the read-out against control, counted positive when it falls. One may read the IC50 as the concentration that inhibits the measured activity by half.

Sequence of CDK4/CyclinD1 (P11802 whole entry, species assumed): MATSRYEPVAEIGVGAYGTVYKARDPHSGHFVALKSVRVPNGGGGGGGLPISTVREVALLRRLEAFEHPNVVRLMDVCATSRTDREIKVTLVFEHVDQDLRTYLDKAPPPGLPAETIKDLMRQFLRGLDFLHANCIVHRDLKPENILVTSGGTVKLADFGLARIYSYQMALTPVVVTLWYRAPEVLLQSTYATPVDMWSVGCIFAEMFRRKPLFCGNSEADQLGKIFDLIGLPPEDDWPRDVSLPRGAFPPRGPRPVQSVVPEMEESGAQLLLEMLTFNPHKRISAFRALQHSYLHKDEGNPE
Sequence of CDK4/CyclinD1 (P24385 whole entry partner, species assumed): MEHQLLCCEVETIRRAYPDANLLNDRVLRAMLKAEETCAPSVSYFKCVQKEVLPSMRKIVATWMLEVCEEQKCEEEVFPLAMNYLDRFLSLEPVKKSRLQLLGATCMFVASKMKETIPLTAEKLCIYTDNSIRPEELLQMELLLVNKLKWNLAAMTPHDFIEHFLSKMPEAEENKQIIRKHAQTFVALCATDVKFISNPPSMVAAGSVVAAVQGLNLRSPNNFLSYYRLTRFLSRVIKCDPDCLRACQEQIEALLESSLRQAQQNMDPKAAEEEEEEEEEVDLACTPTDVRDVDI

As for `COC(=O)Nc1nc2ccc(OS(=O)(=O)c3ccc(OCCN4CCCCC4)cc3)cc2[nH]1` [Example 64-d, 4-(2-piperidin-1-yl-ethoxy)-benzenesulfonic acid 2-methoxycarbonylamino-3H-benzoimidazol-5-yl ester], the inhibition at 10 µM was 50%. `COC(=O)Nc1nc2cc(OS(=O)(=O)c3cccc(F)c3)ccc2[nH]1` [Example 62-r, 3-Fluoro-benzenesulfonic acid 2-methoxycarbonylamino-1H-benzoimidazol-5-yl ester] displayed an IC50 of 2.5 µM. On to `COC(=O)Nc1nc2cc(OS(=O)(=O)c3cc(F)ccc3C)ccc2[nH]1` [Example 62-q, 5-Fluoro-2-methyl-benzenesulfonic acid 2-methoxycarbonylamino-1H-benzoimidazol-5-yl ester], for which the IC50 came out at 1.6 µM. For `COC(=O)Nc1nc2ccc(OS(=O)(=O)c3ccc(NCC4CC4)cc3)cc2[nH]1` [Example 67, 4-(cyclopropylmethyl-amino)-benzene sulfonic acid 2-methoxycarbonylamino-1H-benzoimidazol-5-yl ester], the inhibition at 10 µM stood at 91%. Regarding `COCCNc1ccc(S(=O)(=O)Oc2ccc3[nH]c(NC(=O)NCCN4CCOCC4)nc3c2)cc1` [Example 78-e, 4-(2-Methoxy-ethylamino)-benzenesulfonic acid 2-[3-(2-morpholin-4-yl-ethyl)-ureido]-1H-benzoimidazol-5-yl ester], 0.6 µM corresponded to half-maximal inhibition (IC50). Same read-out and setting: with `CCOC(=O)CCCNC(=O)Nc1nc2cc(OS(=O)(=O)c3ccc(NC4CCCC4)cc3)ccc2[nH]1` [Example 58-n, 4-{3-[5-(4-Cyclopentylamino-benzenesulfonyloxy)-1H-benzoimidazol-2-yl]-ureido}-butyric acid ethyl ester] the figure was 0.6 µM; with `COC(=O)Nc1nc2cc(OS(=O)(=O)c3cccc([N+](=O)[O-])c3)ccc2[nH]1` [Example 62-l, 3-Nitro-benzenesulfonic acid 2-methoxycarbonylamino-1H-benzoimidazol-5-yl ester], 2.5 µM.

Regarding `O=C(NCCN1CCOCC1)Nc1nc2cc(OS(=O)(=O)c3ccc(NCc4ccccc4)cc3)ccc2[nH]1` [Example 78-w, 4-Benzylamino-benzenesulfonic acid 2-[3-(2-morpholin-4-yl-ethyl)-ureido]-1H-benzoimidazol-5-yl ester], the inhibition at 10 µM worked out at 90%. Compound `CC(C)(CO)CNc1ccc(S(=O)(=O)Oc2ccc3[nH]c(NC(=O)C4CC4)nc3c2)cc1` [Example 60-l, 4-(3-Hydroxy-2,2-dimethyl-propylamino)-benzenesulfonic acid 2-(cyclopropanecarbonyl-amino)-1H-benzoimidazol-5-yl ester] had an IC50 of 0.4 µM. The same measure, in the same setting: as for `COC(=O)Nc1nc2ccc(OS(=O)(=O)c3ccc(OCc4ccccc4)cc3)cc2[nH]1` [Example 63, 4-benzyloxy-benzenesulfonic acid 2-methoxycarbonylamino-1H-benzoimidazol-5-yl ester], the figure is 1.5 µM. Take `COCC(O)CNC(=O)Nc1nc2ccc(OS(=O)(=O)c3ccc(NCC(O)COC)cc3)cc2[nH]1` (stereo not drawn) [Example 80-m, 4-(2-Hydroxy-3-methoxy-propylamino)-benzenesulfonic acid 2-[3-(2-hydroxy-3-methoxy-propyl)-ureido]-3H-benzoimidazol-5-yl ester]: the inhibition at 10 µM came out at 103%. On the same count and under the same terms, with `COCCNC(=O)Nc1nc2cc(OS(=O)(=O)c3ccc(OCc4ccccc4)cc3)ccc2[nH]1` [Example 78-o, 4-Benzyloxy-benzenesulfonic acid 2-[3-(2-methoxy-ethyl)-ureido]-1H-benzoimidazol-5-yl ester] the figure was 54%.
